Data on 15 molecules can be found in PubChem BioAssay (NCI).

Structures are written as SMILES.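 Briefly, cells in 96-well plates were exposed to five compound concentrations for 48 h, and endpoints were estimated by linear interpolation. GI50 is the concentration that inhibits growth by half. TGI: concentration producing complete growth inhibition.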

Some test systems named below: SF-295 CNS; SR leukemia; TK-10 renal; SW-620 colon; MOLT-4 leukemia; ACHN renal; NCI-H226 lung; SK-OV-3 ovarian; EKVX NSCLC; MCF7 breast.
Test in all cases: growth of human tumour cells (NCI), 48 h

For `COc1cc2c(cc1OC)C1(c3ccc(Cl)cc3)ON=C(c3ccccc3)N1CS2` (stereo not given), the TGI with SF-295 CNS, with SR leukemia, in the assay on TK-10 renal, with SW-620 colon, in the assay with MOLT-4 leukemia and in the assay with ACHN renal was over 100 µM in each case. Also, the TGI in the assay with NCI-H226 lung, with SK-OV-3 ovarian and in the assay with EKVX NSCLC was over 100 µM each time.

Consider `CCC1(COC(NC(=O)c2ccccc2)(C(F)(F)F)C(F)(F)F)COC1`, for which the TGI in the assay on SR leukemia, in the assay with TK-10 renal, with SW-620 colon, in the assay with MOLT-4 leukemia, in the assay on ACHN renal and in the assay with SK-OV-3 ovarian was over 100 µM throughout. In the assay on EKVX NSCLC, this molecule showed a TGI of over 100 µM.

As for `CC(C)(C)c1cc(C2COC(c3cc(C(C)(C)C)c(O)c(C(C)(C)C)c3)CO2)cc(C(C)(C)C)c1O` (stereo not given), the TGI in the assay on SF-295 CNS, in the assay with TK-10 renal, in the assay on SW-620 colon, in the assay with MCF7 breast, in the assay on ACHN renal and with NCI-H226 lung was over 100 µM throughout. In addition, the TGI with SK-OV-3 ovarian and in the assay on EKVX NSCLC was over 100 µM throughout.

With `O=C1C[C@@H](c2ccccc2)O[C@@H](c2ccccc2)C1`, the TGI in the assay on SF-295 CNS, in the assay with SW-620 colon, with MOLT-4 leukemia, in the assay with MCF7 breast, in the assay with NCI-H226 lung and with SK-OV-3 ovarian was over 100 µM in each case. Also, the TGI with EKVX NSCLC was over 100 µM.

Take `COc1cc(C(c2ccc3c(c2)OCO3)N2C(=O)CCC2C(=O)O)cc(OC)c1OC` (stereo not given): the TGI with SF-295 CNS, with TK-10 renal, in the assay with SW-620 colon, in the assay with MOLT-4 leukemia, in the assay on MCF7 breast and in the assay with ACHN renal was over 100 µM each time. For the same molecule, the TGI in the assay with NCI-H226 lung, in the assay on SK-OV-3 ovarian and in the assay with EKVX NSCLC was over 100 µM in each case.

Take `COC(=O)CC1NC(=O)C1C1(C)OCCO1` (stereo not given): the TGI in the assay on SF-295 CNS, in the assay with SR leukemia, in the assay with TK-10 renal, in the assay on SW-620 colon, with ACHN renal and with NCI-H226 lung was over 100 µM in each case. In the assay with EKVX NSCLC, this molecule displayed a TGI of over 100 µM.

On to `O=[As](O)(O)c1ccc(N=Nc2ccc(O)cc2)cc1`, for which the TGI was over 100 µM with SF-295 CNS; over 100 µM in the assay with TK-10 renal; over 100 µM in the assay with SW-620 colon; 17.1 µM in the assay on MOLT-4 leukemia; over 100 µM with MCF7 breast; over 100 µM in the assay on ACHN renal. Besides, the TGI with NCI-H226 lung, in the assay with SK-OV-3 ovarian and in the assay on EKVX NSCLC was over 100 µM in each case.

With `CC(C)=C/C=C1/CS(=O)(=O)C=C1C`, the TGI in the assay on SF-295 CNS, in the assay on TK-10 renal, in the assay with SW-620 colon, with MOLT-4 leukemia, with MCF7 breast and in the assay on ACHN renal was over 100 µM throughout. Further, the TGI in the assay with NCI-H226 lung, with SK-OV-3 ovarian and in the assay with EKVX NSCLC was over 100 µM in each case.

Turning to `COc1cc(-c2cc(-c3cc([N+](=O)[O-])c(/C=N/NC(=O)c4ccncc4)o3)ccc2OC)ccc1C`, the TGI in the assay on SF-295 CNS, with TK-10 renal, in the assay with SW-620 colon, in the assay with ACHN renal, with NCI-H226 lung and in the assay with SK-OV-3 ovarian was over 100 µM each time. This molecule gave a TGI with EKVX NSCLC of over 100 µM.

Turning to `O=C(N/N=C/c1cc(Cl)cc(Cl)c1O)c1ccccc1O`, the TGI is 11.3 µM with SF-295 CNS; over 100 µM in the assay with SR leukemia; 70.3 µM in the assay on TK-10 renal; 21.5 µM in the assay on SW-620 colon; over 100 µM in the assay with MOLT-4 leukemia; 5.57 µM in the assay on ACHN renal. Besides, the TGI in the assay on SK-OV-3 ovarian was 15.3 µM; with EKVX NSCLC, over 100 µM. The GI50 is 0.375 µM in the assay on MOLT-4 leukemia and 1.71 µM in the assay on EKVX NSCLC.

On to `FC(F)(F)c1ccc2nc(Sc3ccccn3)cnc2c1`, for which the TGI with SF-295 CNS was over 100 µM; with TK-10 renal it was over 100 µM; in the assay with SW-620 colon, over 100 µM; with MOLT-4 leukemia, over 100 µM; in the assay with MCF7 breast, over 100 µM; in the assay with ACHN renal, 52.9 µM. For the same molecule, the TGI in the assay with NCI-H226 lung was 60.2 µM; in the assay on SK-OV-3 ovarian it was over 100 µM; in the assay with EKVX NSCLC, over 100 µM.

Turning to `Cc1ccc(N=Nc2c(O)c(C(=O)Nc3ccccc3)cc3ccccc23)c([N+](=O)[O-])c1`, the TGI in the assay with SF-295 CNS, in the assay on TK-10 renal, with SW-620 colon, in the assay with MOLT-4 leukemia, with ACHN renal and in the assay on SK-OV-3 ovarian was over 100 µM throughout. The molecule also yielded a TGI in the assay on EKVX NSCLC of over 100 µM.

Turning to `CCOP(=O)(OCC)C(C)(CC)NC` (stereo not given), the TGI with SF-295 CNS, in the assay on TK-10 renal, with SW-620 colon, with MOLT-4 leukemia, with MCF7 breast and in the assay on ACHN renal was over 100 µM in each case. Further, the TGI in the assay with NCI-H226 lung, with SK-OV-3 ovarian and in the assay with EKVX NSCLC was over 100 µM each time.

Take `Cc1n[nH]c(=O)n1/N=C/c1ccc([N+](=O)[O-])o1`: the TGI with SF-295 CNS was over 100 µM; in the assay with TK-10 renal, 36.8 µM; in the assay with SW-620 colon it was 37.8 µM; in the assay with MOLT-4 leukemia, over 100 µM; in the assay on MCF7 breast it was over 100 µM; with ACHN renal, 28.7 µM. For the same molecule, the TGI was 56 µM in the assay with NCI-H226 lung, over 100 µM with SK-OV-3 ovarian and 34.3 µM in the assay with EKVX NSCLC.

Regarding `CCC(c1c[nH]c2ccc(Br)cc12)c1c[nH]c2ccc(Br)cc12`, the TGI in the assay on SF-295 CNS is 18.8 µM; in the assay with TK-10 renal it was 22.9 µM; in the assay on SW-620 colon it was 19.1 µM; in the assay on MOLT-4 leukemia, 4.56 µM; in the assay on MCF7 breast, 15.5 µM; in the assay on ACHN renal, 12.8 µM. For the same molecule, the TGI is 44 µM in the assay with NCI-H226 lung, 24.1 µM in the assay on SK-OV-3 ovarian and 17.2 µM in the assay with EKVX NSCLC.
